Among the data in patent US20240246948A1, “BENZAMIDE DERIVATIVE, METHOD FOR PREPARING SAME, AND PHARMACEUTICAL COMPOSITION FOR PREVENTION OR TREATMENT OF CANCER CONTAINING SAME AS ACTIVE INGREDIENT” (HK INNO.N CORPORATION, priority 2021, published 2024) are GI50 values, retold here.

The target in assay [1] is Ba/F3 EGFR L858R/T790M/C797S (LTC) (Homo sapiens, UniProt P00533, T790M/C797S/L858R, cells depend on it). Kind of assay: Cell growth inhibitory ability in Ba/F3 cells overexpressing EGFR L858R/T790M/C797S (MTS, CellTiter 96 AQueous). The conditions noted are these: 72 hours, MTS absorbance at 490 nm, read-out: Ba/F3 EGFR triple mutant L858R/T790M/C797S, IC50. The assay is classed as cell-based. On the procedure: (§1) In order to confirm that the compound represented by formula 1 provided in one aspect of the present invention acts as an allosteric inhibitor against WT and mutant of EGFR, the cell growth inhibitory effect was evaluated in BaF3 cells overexpressing WT and mutant of EGFR.
(§2) More specifically, the cell growth inhibitory ability of the compound of the present invention to the Ba/F3 cell line overexpressing WT and mutant of EGFR was evaluated using CellTiter 96 AQueous Non-Radioactive Cell Proliferation Assay system of Promega, as follows. AQueous Non-Radioactive Cell Proliferation Assay is a method of confirming cell growth inhibitory ability by measuring the degree of color development by reducing MTS (3-(4,5-Dimethylthiazol-2-yl)-5-(3-carboxymethoxyphenyl)-2-(4-sulfophenyl)-2H-tetrazolium) to Formazan by a reductase secreted by mitochondria present in living cells in a cell culture state. The Ba/F3 EGFR WT and Ba/F3 EGFR del19/T790M/C797S (DTC), Ba/F3 EGFR L858R (L), Ba/F3 EGFR L858R/T790M (LT), and Ba/F3 EGFR L858R/T790M/C797S (LTC) mutation cell lines used in the present invention were purchased from the laboratory of Professor Byung-cheol Cho, Yonsei University. All cell lines were cultured in RPMI supplemented with 10% FBS, 1% penicillin-streptomycin and 1 μg/ml of puromycine in a 5% CO2 incubator at 37° C.
(§3) The cell survival inhibitory effect of the compound according to each EGFR mutation was analyzed by the following analysis method.
(§4) BaF3 cells were distributed in a 96-well cell culture plate at the density of 2000˜10000 cells/100 μL/well, and cultured for 24 hours. Thereafter, the concentration of the compound represented by formula 1 provided in one aspect of the present invention was prepared to double the final concentrations of 0.1 nM, 1 nM, 10 nM, 100 nM, 1000 nM and 10000 nM, and the compound was treated to the plate (100 μL/well). The plate was reacted in an incubator at 37° C. for 72 hours. Then, MTS was treated to the plate (20 μL/well) and the plate was incubated at 37° C. for 2 to 4 hours. Finally, after measuring the absorbance at 490 nm using a microplate reader, the relative value compared to 0 nM (% Control) was obtained to confirm the cell growth inhibitory ability of the compound. The measured values were analyzed using Prism program (version 8.0, Graphpad Software, Inc.), and the IC50 value (Inhibition concentration 50), an indicator of the cell growth inhibitory ability of the compound, was calculated.

Assay [2] concerns the target Ba/F3 EGFR L858R/T790M (LT) (Homo sapiens, UniProt P00533, T790M/L858R, cells depend on it). Kind of assay: Cell growth inhibitory ability in Ba/F3 cells overexpressing EGFR L858R/T790M (MTS, CellTiter 96 AQueous). The assay is classed as cell-based. The conditions noted are these: 72 hours, MTS absorbance at 490 nm, read-out: Ba/F3 EGFR double mutant L858R/T790M, IC50. Here is the method:
as §1, §2, §3, §4

Chain of Ba/F3 EGFR L858R/T790M (LT) (P00533 whole entry T790M/L858R): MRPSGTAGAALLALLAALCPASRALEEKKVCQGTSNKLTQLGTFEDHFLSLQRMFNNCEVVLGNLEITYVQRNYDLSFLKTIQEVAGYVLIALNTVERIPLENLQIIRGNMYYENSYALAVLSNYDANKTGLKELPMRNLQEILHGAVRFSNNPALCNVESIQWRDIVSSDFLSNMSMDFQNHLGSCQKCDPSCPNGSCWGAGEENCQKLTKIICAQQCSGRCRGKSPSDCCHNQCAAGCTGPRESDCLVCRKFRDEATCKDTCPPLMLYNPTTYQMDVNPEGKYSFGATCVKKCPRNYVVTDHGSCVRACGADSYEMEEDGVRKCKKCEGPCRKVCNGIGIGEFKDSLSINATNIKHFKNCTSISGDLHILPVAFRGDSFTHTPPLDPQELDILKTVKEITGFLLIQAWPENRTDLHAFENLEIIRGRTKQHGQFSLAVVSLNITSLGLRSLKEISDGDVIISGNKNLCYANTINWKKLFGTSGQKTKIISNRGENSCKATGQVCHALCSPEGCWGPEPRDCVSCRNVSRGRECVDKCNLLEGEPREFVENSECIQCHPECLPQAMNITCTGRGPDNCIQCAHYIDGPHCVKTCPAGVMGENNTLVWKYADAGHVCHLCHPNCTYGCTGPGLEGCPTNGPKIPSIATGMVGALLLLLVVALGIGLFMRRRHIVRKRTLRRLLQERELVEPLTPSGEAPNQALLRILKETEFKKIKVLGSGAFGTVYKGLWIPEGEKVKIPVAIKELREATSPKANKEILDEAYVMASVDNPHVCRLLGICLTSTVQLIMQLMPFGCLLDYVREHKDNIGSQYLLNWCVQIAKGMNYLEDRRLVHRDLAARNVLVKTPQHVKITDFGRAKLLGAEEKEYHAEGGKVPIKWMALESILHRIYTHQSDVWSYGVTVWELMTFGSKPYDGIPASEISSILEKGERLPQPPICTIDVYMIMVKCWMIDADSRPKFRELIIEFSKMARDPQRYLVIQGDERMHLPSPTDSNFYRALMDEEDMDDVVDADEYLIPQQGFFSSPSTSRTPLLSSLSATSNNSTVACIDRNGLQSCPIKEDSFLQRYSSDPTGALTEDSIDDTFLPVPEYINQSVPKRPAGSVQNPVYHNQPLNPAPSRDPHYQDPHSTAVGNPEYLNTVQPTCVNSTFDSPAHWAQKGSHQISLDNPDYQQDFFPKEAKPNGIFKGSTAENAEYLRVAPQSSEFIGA
Chain of Ba/F3 EGFR L858R/T790M/C797S (LTC) (P00533 whole entry T790M/C797S/L858R): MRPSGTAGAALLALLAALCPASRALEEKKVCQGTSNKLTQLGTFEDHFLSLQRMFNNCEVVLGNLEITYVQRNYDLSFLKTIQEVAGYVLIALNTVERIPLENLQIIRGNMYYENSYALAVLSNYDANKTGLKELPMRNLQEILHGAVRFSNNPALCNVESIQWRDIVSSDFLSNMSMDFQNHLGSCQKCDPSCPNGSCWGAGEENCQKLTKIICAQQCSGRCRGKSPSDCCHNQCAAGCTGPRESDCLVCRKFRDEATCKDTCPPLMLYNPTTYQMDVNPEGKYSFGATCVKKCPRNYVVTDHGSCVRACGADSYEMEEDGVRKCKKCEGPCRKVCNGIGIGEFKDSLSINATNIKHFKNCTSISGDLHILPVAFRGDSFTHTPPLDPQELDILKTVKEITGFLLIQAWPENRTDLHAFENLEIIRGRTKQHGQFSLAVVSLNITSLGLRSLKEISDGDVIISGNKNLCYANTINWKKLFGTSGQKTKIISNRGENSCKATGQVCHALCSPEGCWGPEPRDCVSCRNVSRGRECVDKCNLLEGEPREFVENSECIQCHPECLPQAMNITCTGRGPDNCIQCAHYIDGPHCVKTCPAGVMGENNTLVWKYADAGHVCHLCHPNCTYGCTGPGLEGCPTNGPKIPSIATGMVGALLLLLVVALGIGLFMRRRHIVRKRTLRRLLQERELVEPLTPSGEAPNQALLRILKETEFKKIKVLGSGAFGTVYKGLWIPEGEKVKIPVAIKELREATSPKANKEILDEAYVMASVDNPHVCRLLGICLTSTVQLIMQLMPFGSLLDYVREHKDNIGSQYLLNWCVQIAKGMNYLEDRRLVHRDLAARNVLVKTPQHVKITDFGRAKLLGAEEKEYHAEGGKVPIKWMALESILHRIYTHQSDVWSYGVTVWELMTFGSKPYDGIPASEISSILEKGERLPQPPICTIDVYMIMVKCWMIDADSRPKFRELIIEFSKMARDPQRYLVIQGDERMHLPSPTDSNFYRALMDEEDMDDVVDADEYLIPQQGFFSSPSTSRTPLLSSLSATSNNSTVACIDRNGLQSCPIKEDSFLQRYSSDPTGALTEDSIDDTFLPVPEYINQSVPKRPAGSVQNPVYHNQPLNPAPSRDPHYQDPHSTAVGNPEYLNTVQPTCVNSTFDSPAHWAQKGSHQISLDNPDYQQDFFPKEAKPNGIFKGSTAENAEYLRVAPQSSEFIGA

With `NC1CCN(c2ccc(-c3cc(Cl)cc(C(=O)N[C@@H](c4cc5ccccc5[nH]4)c4cc(F)ccc4O)c3)cc2)CC1` [Example 10, (R)-4′-(4-aminopiperidine-1-yl)-5-chloro-N-((5-fluoro-2-hydroxyphenyl)(1H-indole-2-yl)methyl)-[1,1′-biphenyl]-3-carboxamide], the GI50 in assay [1] was 30 to 200 nM; in assay [2], less than 30 nM.
On the same counts, the results for `NC1CCN(c2ccc(-c3cc(OC(F)(F)F)cc(C(=O)N[C@@H](c4cc5ccccc5[nH]4)c4cc(F)ccc4O)c3)cc2)CC1` [Example 11, (R)-4′-(4-aminopiperidine-1-yl)-N-((5-fluoro-2-hydroxyphenyl)(1H-indole-2-yl)methyl)-5-(trifluoromethoxy)-[1,1′-biphenyl]-3-carboxamide] are more than 200 nM and more than 200 nM.
Turning to `COc1ccc(F)cc1[C@@H](NC(=O)c1cc(OC(F)(F)F)cc(-c2ccc(N3CCC(N)CC3)cc2)c1)c1cc2ccccc2[nH]1` [Example 12, (R)-4′-(4-aminopiperidine-1-yl)-N-((5-fluoro-2-methoxyphenyl)(1H-indole-2-yl)methyl)-5-(trifluoromethoxy)-[1,1′-biphenyl]-3-carboxamide], the GI50 in assay [1] was more than 200 nM; in assay [2], 30 to 200 nM.
The like results for `NC1CCN(c2ccc(-c3cc(C(=O)N[C@@H](c4cc5ccccc5[nH]4)c4cc(F)ccc4O)cc(-n4ccnc4)c3)cc2)CC1` [Example 13, (R)-4′-(4-aminopiperidine-1-yl)-N-((5-fluoro-2-hydroxyphenyl)(1H-indole-2-yl)methyl)-5-(1H-imidazole-1-yl)-[1,1′-biphenyl]-3-carboxamide] were, in that order, more than 200 nM and more than 200 nM.
With `NC1CCN(c2ccc(-c3cc(C(=O)N[C@@H](c4cc5ccccc5[nH]4)c4cc(F)ccc4O)ccn3)cc2)CC1` [Example 14, (R)-2-(4-(4-aminopiperidine-1-yl)phenyl)-N-((5-fluoro-2-hydroxyphenyl)(1H-indole-2-yl)methyl)isonicotinamide], the GI50 is more than 200 nM in assay [1] and 30 to 200 nM in assay [2].
With `COc1ccc(F)cc1[C@@H](NC(=O)c1ccnc(-c2ccc(N3CCC(N)CC3)cc2)c1)c1cc2ccccc2[nH]1` [Example 15, (R)-2-(4-(4-aminopiperidine-1-yl)phenyl)-N-((5-fluoro-2-methoxyphenyl)(1H-indole-2-yl)methyl)isonicotinamide], the GI50 in assay [1] and in assay [2] was more than 200 nM each time.
Consider `Cc1cc(C(=O)N[C@@H](c2cc3ccccc3[nH]2)c2cc(F)ccc2O)cc(-c2cnc(N3CCC(N)CC3)nc2)c1` [Example 16, (R)-3-(2-(4-aminopiperidine-1-yl)pyrimidine-5-yl)-N-((5-fluoro-2-hydroxyphenyl)(1H-indole-2-yl)methyl)-5-methylbenzamide], for which the GI50 was 30 to 200 nM in assay [1] and less than 30 nM in assay [2].
The like results for `Cc1cc(C(=O)N[C@@H](c2cc3ccccc3[nH]2)c2cc(F)ccc2O)cc(-c2ccc(N3CCC(N)CC3)cn2)c1` [Example 17, (R)-3-(5-(4-aminopiperidine-1-yl)pyridine-2-yl)-N-((5-fluoro-2-hydroxyphenyl)(1H-indole-2-yl)methyl)-5-methylbenzamide] were, in that order, less than 30 nM and less than 30 nM.
On to `Cc1cc(C(=O)N[C@@H](c2cc3ccccc3[nH]2)c2cc(F)ccc2O)cc(-c2cnc(N3CCC(N)CC3)cn2)c1` [Example 18, (R)-3-(5-(4-aminopiperidine-1-yl)pyrazine-2-yl)-N-((5-fluoro-2-hydroxyphenyl)(1H-indole-2-yl)methyl)-5-methylbenzamide], for which the GI50 in assay [1] and in assay [2] was less than 30 nM in each case.
As for `Cc1cc(C(=O)N[C@@H](c2cc3ccccc3[nH]2)c2cc(F)ccc2O)cc(-c2ccc(N3CCC(N)CC3)nc2)c1` [Example 19, (R)-3-(6-(4-aminopiperidine-1-yl)pyridine-3-yl)-N-((5-fluoro-2-hydroxyphenyl)(1H-indole-2-yl)methyl)-5-methylbenzamide], the GI50 in assay [1] and in assay [2] was less than 30 nM throughout.
`Cc1cc(C(=O)N[C@@H](c2cc3ccccc3[nH]2)c2cc(F)ccc2O)cc(-c2ccc(N3CCC(N)CC3)nn2)c1` [Example 20, (R)-3-(6-(4-aminopiperidine-1-yl)pyridazine-3-yl)-N-((5-fluoro-2-hydroxyphenyl)(1H-indole-2-yl)methyl)-5-methylbenzamide]: the GI50 is more than 200 nM in assay [1] and 30 to 200 nM in assay [2].
The like results for `Cc1cc(C(=O)N[C@@H](c2cc3ccccc3[nH]2)c2cc(F)ccc2O)cc(-c2ncc(N3CCC(N)CC3)cn2)c1` [Example 21, (R)-3-(5-(4-aminopiperidine-1-yl)pyrimidine-2-yl)-N-((5-fluoro-2-hydroxyphenyl)(1H-indole-2-yl)methyl)-5-methylbenzamide] were, in that order, less than 30 nM and less than 30 nM.
On the same counts, the results for `Cc1cc(C(=O)N[C@@H](c2cc3ccccc3[nH]2)c2cc(F)ccc2O)cc(-c2ccc(N3CCC(N)CC3)c(F)c2)c1` [Example 22, (R)-4′-(4-aminopiperidine-1-yl)-3′-fluoro-N-((5-fluoro-2-hydroxyphenyl)(1H-indole-2-yl)methyl)-5-methyl-[1,1′-biphenyl]-3-carboxamide] are less than 30 nM and less than 30 nM.
The like results for `Cc1cc(C(=O)N[C@@H](c2cc3ccccc3[nH]2)c2cc(F)ccc2O)cc(-c2ccc(N3CCC(N)CC3)cc2C)c1` [Example 23, (R)-4′-(4-aminopiperidine-1-yl)-N-((5-fluoro-2-hydroxyphenyl)(1H-indole-2-yl)methyl)-2′,5-dimethyl-[1,1′-biphenyl]-3-carboxamide] were, in that order, less than 30 nM and less than 30 nM.
In the case of `Cc1cc(C(=O)N[C@@H](c2cc3ccccc3[nH]2)c2cc(F)ccc2O)cc(-c2ccc(N3CCC(N)CC3)cc2F)c1` [Example 24, (R)-4′-(4-aminopiperidine-1-yl)-2′-fluoro-N-((5-fluoro-2-hydroxyphenyl)(1H-indole-2-yl)methyl)-5-methyl-[1,1′-biphenyl]-3-carboxamide], the GI50 in assay [1] and in assay [2] was less than 30 nM each time.
As to `Cc1cc(C(=O)N[C@@H](c2cc3ccccc3[nH]2)c2cc(F)ccc2O)cc(-c2ccc(N3CCC(N)CC3)c(C)c2)c1` [Example 25, (R)-4′-(4-aminopiperidine-1-yl)-N-((5-fluoro-2-hydroxyphenyl)(1H-indole-2-yl)methyl)-3′,5-dimethyl-[1,1′-biphenyl]-3-carboxamide], the GI50 in assay [1] and in assay [2] was less than 30 nM throughout.
`Cc1cc(C(=O)N[C@@H](c2cc3ccc(F)cc3[nH]2)c2cc(F)ccc2O)cc(-c2ccc(N3CCC(N)CC3)cc2)c1` [Example 26, (R)-4′-(4-aminopiperidine-1-yl)-N-((6-fluoro-1H-indole-2-yl)(5-fluoro-2-hydroxyphenyl)methyl)-5-methyl-[1,1′-biphenyl]-3-carboxamide]: the GI50 in assay [1] was 30 to 200 nM; in assay [2] it was less than 30 nM.
As to `Cc1cc(C(=O)N[C@@H](c2cc3ccc(Cl)cc3[nH]2)c2cc(F)ccc2O)cc(-c2ccc(N3CCC(N)CC3)cc2)c1` [Example 27, (R)-4′-(4-aminopiperidine-1-yl)-N-((6-chloro-1H-indole-2-yl)(5-fluoro-2-hydroxyphenyl)methyl)-5-methyl-[1,1′-biphenyl]-3-carboxamide], the GI50 in assay [1] is more than 200 nM; in assay [2] it was 30 to 200 nM.
On the same counts, the results for `Cc1c(C(=O)N[C@@H](c2cc3ccccc3[nH]2)c2cc(F)ccc2O)cccc1-c1ccc(N2CCC(N)CC2)cc1` [Example 30, (R)-4′-(4-aminopiperidine-1-yl)-N-((5-fluoro-2-hydroxyphenyl) (1H-indole-2-yl)methyl)-2-methyl-[1,1′-biphenyl]-3-carboxamide] are more than 200 nM and more than 200 nM.
For the compound `Cc1cc(C(=O)N[C@H](c2cc3ccccc3[nH]2)c2cc(F)ccc2O)cc(-c2ccc(N3CCC(N)CC3)cc2)c1` [Example 31, (S)-4′-(4-aminopiperidine-1-yl)-N-((5-fluoro-2-hydroxyphenyl)(1H-indole-2-yl)methyl)-5-methyl-[1, l′-biphenyl]-3-carboxamide], the GI50 in assay [1] and in assay [2] was more than 200 nM in each case.
